In ChEMBL document CHEMBL4804281, “STK4 inhibitors for treatment of hematologic malignancies” (2020):
The source made the active and inactive calls. The rule behind the calls is not given here.

What was measured:
[1] = target: T1, Serine/threonine-protein kinase 3 (Homo sapiens) (UniProt Q13188); experiment: Inhibition of STK3 (unknown origin) using fluorescein-labelled Ser/Thr-07 peptide as substrate incubated for 1 hr in presence of ATP at Km concentration by Z-LYTE assay
T1 sequence (whole entry): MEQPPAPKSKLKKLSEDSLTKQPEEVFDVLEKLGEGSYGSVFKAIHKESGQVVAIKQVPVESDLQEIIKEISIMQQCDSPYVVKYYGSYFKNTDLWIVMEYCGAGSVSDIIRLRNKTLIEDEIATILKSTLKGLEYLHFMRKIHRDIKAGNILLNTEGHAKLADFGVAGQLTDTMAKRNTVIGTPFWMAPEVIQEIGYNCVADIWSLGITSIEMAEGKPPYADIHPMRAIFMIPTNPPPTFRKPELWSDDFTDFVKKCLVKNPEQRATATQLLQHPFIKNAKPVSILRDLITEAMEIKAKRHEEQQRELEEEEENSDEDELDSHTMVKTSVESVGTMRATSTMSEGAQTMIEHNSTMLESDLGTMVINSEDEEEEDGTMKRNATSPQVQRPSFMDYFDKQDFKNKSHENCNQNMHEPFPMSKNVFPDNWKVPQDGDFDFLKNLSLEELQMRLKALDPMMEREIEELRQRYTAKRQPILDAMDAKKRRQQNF

[2] = tested on: MM1.S; experiment: Downregulation of phosphorylated-MOB1 protein level in human MM1.S cells at 1 to 10 uM measured after 6 hrs by Western blot analysis; type: functional, cell-based; settings: dose 1-10 µM
[3] = target: T2, Serine/threonine-protein kinase 4 (Homo sapiens) (UniProt Q13043); experiment: Inhibition of STK4 (unknown origin) using fluorescein-labelled Ser/Thr-07 peptide as substrate incubated for 1 hr in presence of ATP at Km concentration by Z-LYTE assay
T2 sequence (whole entry): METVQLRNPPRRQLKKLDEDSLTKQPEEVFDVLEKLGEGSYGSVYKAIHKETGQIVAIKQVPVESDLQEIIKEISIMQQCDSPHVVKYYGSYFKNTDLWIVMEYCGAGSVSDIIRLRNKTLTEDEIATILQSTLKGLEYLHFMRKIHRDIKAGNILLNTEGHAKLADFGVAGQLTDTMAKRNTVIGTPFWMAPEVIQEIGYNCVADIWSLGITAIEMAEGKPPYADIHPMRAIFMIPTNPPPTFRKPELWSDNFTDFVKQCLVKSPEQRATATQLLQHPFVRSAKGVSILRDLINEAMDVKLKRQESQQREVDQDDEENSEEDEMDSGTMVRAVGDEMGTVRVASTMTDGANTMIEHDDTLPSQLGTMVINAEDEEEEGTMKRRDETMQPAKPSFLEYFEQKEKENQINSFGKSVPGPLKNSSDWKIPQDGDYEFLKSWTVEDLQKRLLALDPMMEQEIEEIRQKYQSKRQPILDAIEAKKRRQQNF

[4] = target: Serine/threonine-protein kinase 24 (Homo sapiens) (UniProt Q9Y6E0); experiment: Inhibition of STK24 (unknown origin) using fluorescein-labelled Ser/Thr-07 peptide as substrate incubated for 1 hr in presence of ATP at Km concentration by Z-LYTE assay
[5] = tested on: NCI-H929; experiment: Upregulation of YAP1 protein level in human NCI-H929 cells at 1 to 10 uM measured after 16 hrs by Western blot analysis; type: functional, cell-based; settings: dose 1-10 µM
[6] = target: Interleukin-1 receptor-associated kinase 1 (Homo sapiens) (UniProt P51617); experiment: Inhibition of wild-type human partial length IRAK1 (R194 to S712 residues) expressed in mammalian expression system by Kinomescan method
[7] = target: T1, Serine/threonine-protein kinase 3 (Homo sapiens); experiment: Inhibition of wild-type human partial length MST2 (D17 to E318 residues) expressed in bacterial expression system by Kinomescan method
[8] = target: Serine/threonine-protein kinase 26 (Homo sapiens) (UniProt Q9P289); experiment: Inhibition of MST4 (unknown origin) using fluorescein-labelled Ser/Thr-07 peptide as substrate incubated for 1 hr in presence of ATP at Km concentration by Z-LYTE assay
[9] = target: Casein kinase I isoform epsilon (Homo sapiens) (UniProt P49674); experiment: Inhibition of wild-type human full length CSNK1E (M1 to K416 residues) expressed in bacterial expression system by Kinomescan method
[10] = target: Casein kinase I isoform gamma-3 (Homo sapiens) (UniProt Q9Y6M4); experiment: Inhibition of wild-type human full length CSNK1G3 (M1 to K447 residues) expressed in bacterial expression system by Kinomescan method
[11] = tested on: MM1.S; experiment: Upregulation of YAP1 protein level in human MM1.S cells at 1 to 10 uM measured after 16 hrs by Western blot analysis; type: functional, cell-based; settings: dose 1-10 µM
[12] = tested on: NCI-H929; experiment: Upregulation of YAP1 protein level in human NCI-H929 cells at 3 to 10 uM measured after 72 hrs by Western blot analysis; type: functional, cell-based; settings: dose 3-10 µM
[13] = tested on: MM1.S; experiment: Upregulation of YAP1 protein level in human MM1.S cells at 3 to 10 uM measured after 72 hrs by Western blot analysis; type: functional, cell-based; settings: dose 3-10 µM
[14] = tested on: MM1.S; experiment: Upregulation of YAP1 protein level in human MM1.S cells at 1 uM measured after 16 hrs by Western blot analysis; type: functional, cell-based

Chain of Serine/threonine-protein kinase 24 (Homo sapiens) (Q9Y6E0 whole entry, looked up): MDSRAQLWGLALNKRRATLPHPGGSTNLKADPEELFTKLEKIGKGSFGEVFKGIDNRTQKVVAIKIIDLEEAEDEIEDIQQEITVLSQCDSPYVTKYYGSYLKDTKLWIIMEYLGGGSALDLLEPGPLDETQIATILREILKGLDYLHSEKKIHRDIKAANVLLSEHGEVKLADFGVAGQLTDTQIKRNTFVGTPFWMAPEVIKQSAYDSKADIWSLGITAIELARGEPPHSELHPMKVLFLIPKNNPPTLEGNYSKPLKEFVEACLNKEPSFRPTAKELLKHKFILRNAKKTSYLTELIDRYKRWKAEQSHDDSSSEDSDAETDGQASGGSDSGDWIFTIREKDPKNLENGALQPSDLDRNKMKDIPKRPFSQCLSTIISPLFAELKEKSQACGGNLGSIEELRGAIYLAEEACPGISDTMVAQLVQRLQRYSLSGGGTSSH
Chain of Serine/threonine-protein kinase 26 (Homo sapiens) (Q9P289 2-416 limits assumed): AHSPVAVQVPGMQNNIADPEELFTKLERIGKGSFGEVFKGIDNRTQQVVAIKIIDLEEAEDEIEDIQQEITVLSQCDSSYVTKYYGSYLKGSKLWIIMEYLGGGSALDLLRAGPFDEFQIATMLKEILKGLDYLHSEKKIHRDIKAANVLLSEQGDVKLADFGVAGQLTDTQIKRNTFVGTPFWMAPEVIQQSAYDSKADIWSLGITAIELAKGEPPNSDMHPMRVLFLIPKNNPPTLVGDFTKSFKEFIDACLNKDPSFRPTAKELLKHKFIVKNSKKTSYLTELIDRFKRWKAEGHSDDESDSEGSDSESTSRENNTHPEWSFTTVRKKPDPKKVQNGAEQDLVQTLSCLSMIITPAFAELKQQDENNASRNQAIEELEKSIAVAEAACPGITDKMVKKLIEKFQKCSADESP
Chain of Interleukin-1 receptor-associated kinase 1 (Homo sapiens) (P51617 whole entry, looked up, the tested form may be a part): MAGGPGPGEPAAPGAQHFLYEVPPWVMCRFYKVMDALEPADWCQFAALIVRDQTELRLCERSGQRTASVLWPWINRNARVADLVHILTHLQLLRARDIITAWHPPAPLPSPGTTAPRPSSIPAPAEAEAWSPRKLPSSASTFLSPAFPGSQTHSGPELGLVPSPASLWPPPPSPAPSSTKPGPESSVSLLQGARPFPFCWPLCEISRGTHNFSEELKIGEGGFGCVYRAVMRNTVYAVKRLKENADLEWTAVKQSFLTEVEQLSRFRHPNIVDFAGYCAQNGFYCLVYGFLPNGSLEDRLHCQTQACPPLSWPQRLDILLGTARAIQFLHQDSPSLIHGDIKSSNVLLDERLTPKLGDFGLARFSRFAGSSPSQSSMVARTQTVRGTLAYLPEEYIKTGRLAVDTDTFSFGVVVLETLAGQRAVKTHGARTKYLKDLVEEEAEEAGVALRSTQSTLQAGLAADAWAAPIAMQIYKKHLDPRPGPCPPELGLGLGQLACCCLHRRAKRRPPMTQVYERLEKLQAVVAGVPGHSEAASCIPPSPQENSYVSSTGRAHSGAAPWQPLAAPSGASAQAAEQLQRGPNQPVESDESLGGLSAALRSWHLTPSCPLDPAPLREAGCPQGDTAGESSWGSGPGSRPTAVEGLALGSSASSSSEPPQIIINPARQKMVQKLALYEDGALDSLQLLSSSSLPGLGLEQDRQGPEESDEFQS
Chain of Casein kinase I isoform gamma-3 (Homo sapiens) (Q9Y6M4 whole entry, looked up, the tested form may be a part, canonical isoform): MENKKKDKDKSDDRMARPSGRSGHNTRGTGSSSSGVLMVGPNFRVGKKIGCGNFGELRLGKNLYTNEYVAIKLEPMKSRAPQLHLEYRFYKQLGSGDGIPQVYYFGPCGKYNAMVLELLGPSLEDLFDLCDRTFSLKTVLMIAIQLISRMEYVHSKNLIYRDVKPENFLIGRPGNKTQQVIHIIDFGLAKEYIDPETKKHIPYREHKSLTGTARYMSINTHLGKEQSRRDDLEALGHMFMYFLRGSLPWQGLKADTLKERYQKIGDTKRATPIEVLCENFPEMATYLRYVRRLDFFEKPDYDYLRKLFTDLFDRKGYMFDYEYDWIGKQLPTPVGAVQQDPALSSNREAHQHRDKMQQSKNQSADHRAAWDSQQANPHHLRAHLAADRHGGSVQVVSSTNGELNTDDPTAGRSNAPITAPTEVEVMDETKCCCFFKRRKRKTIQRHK
Chain of Casein kinase I isoform epsilon (Homo sapiens) (P49674 whole entry, looked up, the tested form may be a part, canonical isoform): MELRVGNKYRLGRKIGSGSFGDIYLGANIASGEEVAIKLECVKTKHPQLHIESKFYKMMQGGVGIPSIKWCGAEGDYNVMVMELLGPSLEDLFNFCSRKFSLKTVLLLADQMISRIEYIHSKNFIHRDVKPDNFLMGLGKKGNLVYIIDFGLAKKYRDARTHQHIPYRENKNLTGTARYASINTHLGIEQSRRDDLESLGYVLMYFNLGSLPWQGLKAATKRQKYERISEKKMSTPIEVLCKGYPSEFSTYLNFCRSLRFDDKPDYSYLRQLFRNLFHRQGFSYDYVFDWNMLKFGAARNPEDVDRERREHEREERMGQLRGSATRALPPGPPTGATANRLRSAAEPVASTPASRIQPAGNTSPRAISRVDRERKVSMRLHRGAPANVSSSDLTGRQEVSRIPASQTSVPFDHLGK

IC50 [3]	Compound	further results
40 nM	Nc1ncc(-c2cc([N+](=O)[O-])c(Cl)cc2F)cc1-c1ccc2c(c1)CCNC2=O	IC50 [1]: 40 nM; Activity [2]: Active
> 900 nM	COc1ccncc1-c1cnc(N)c(-c2ccc3c(c2)CCNC3=O)c1	
< 40 nM	CC(C)Oc1cc(S(=O)(=O)N(C)C2CC2)ccc1-c1cnc(N)c(-c2ccc3c(c2)CNC3=O)c1	
40 nM	C#Cc1cc(F)c(-c2cnc(N)c(-c3ccc4c(c3)CCNC4=O)c2)cc1[N+](=O)[O-]	
40 nM	N#Cc1cccc(-c2cnc(N)c(-c3ccc4c(c3)CCNC4=O)c2)c1	IC50 [4]: 200 nM; IC50 [1]: 40 nM
> 900 nM	Nc1ncc(-c2cc([N+](=O)[O-])ccc2Cl)cc1-c1ccc2c(c1)CCNC2=O	
< 40 nM	CN(C1CC1)S(=O)(=O)c1ccc(-c2cnc(N)c(-c3ccc4c(c3)CNC4=O)c2)c(F)c1	IC50 [4]: > 900 nM; IC50 [1]: < 40 nM
40 nM	Cn1cnc2c(-c3cnc(N)c(-c4ccc5c(c4)CCNC5=O)c3)cccc21	
40 nM	COc1cc(-c2nccs2)ccc1-c1cnc(N)c(-c2ccc3c(c2)CCNC3=O)c1	
< 40 nM	C#Cc1ccc(-c2cnc(N)c(-c3ccc4c(c3)CCNC4=O)c2)c(OC)c1	
< 40 nM	CC(C)Oc1cc(NS(=O)(=O)C2CC2)ccc1-c1cnc(N)c(-c2ccc3c(c2)CCNC3=O)c1	
< 40 nM	Nc1ncc(-c2cc3c(cc2F)OCC(=O)N3)cc1-c1ccc2c(c1)CCNC2=O	IC50 [1]: 40 nM; Activity [2]: Active
200 nM	N#Cc1cc(-c2cc(-c3cc([N+](=O)[O-])ccc3F)cnc2N)ccc1O	
40 nM	COc1cc(S(=O)(=O)N(C)C2CCOCC2)ccc1-c1cnc(N)c(-c2ccc3c(c2)CCNC3=O)c1	
40 nM	Nc1ncc(-c2ccc(F)c3ncsc23)cc1-c1ccc2c(c1)CNC2=O	
< 40 nM	Nc1ncc(-c2cc([N+](=O)[O-])ccc2F)cc1-c1ccc2c(c1)CCNC2=O	Activity [5]: Active; IC50 [4]: > 900 nM; Kd [6]: 110 nM; Kd [7]: 42.6 nM; IC50 [1]: 40 nM; IC50 [8]: > 900 nM; Activity [2]: Active; Kd [9]: 201 nM; Kd [10]: 4.68 nM; Activity [11]: Active
40 nM	Nc1ncc(-c2cccc(S(=O)(=O)NC3CC3)c2)cc1-c1ccc2c(c1)CCNC2=O	IC50 [4]: 200 nM; Activity [12]: Active; IC50 [1]: 40 nM; Activity [13]: Active
< 40 nM	CN1CCc2cc(-c3cc(-c4ccc(S(=O)(=O)N(C)C5CC5)cc4F)cnc3N)ccc2C1=O	
200 nM	NC(=O)c1ccc(-c2cc(-c3cc([N+](=O)[O-])ccc3F)cnc2N)cc1Cl	
> 900 nM	Nc1ncc(-c2cc(F)ccc2[N+](=O)[O-])cc1-c1ccc2c(c1)CCNC2=O	
40 nM	Nc1ncc(-c2ccc([N+](=O)[O-])cc2F)cc1-c1ccc2c(c1)CCNC2=O	
200 nM	Nc1ncc(-c2cnccc2F)cc1-c1ccc2c(c1)CCNC2=O	
40 nM	Nc1ncc(-c2ccc3ncsc3c2)cc1-c1ccc2c(c1)CCNC2=O	
40 nM	Nc1ncc(-c2cc(F)cc([N+](=O)[O-])c2)cc1-c1ccc2c(c1)CCNC2=O	
< 40 nM	Nc1ncc(-c2cccc(-c3nccs3)c2)cc1-c1ccc2c(c1)CCNC2=O	
40 nM	Nc1ncc(-c2cccc3scnc23)cc1-c1ccc2c(c1)CCNC2=O	
< 40 nM	Nc1ncc(-c2cccc(NS(=O)(=O)C3CC3)c2)cc1-c1ccc2c(c1)CCNC2=O	

IC50 [3]	Compound	further results
40 nM	Nc1ncc(-c2cc3scnc3cc2F)cc1-c1ccc2c(c1)CCNC2=O	
< 40 nM	CCOc1cc(S(=O)(=O)N(C)C2CC2)ccc1-c1cnc(N)c(-c2ccc3c(c2)CCNC3=O)c1	
200 nM	NC(=O)c1ccc(-c2cc(-c3cc([N+](=O)[O-])ccc3F)cnc2N)cc1	
< 40 nM	COc1cc(S(=O)(=O)N(C)C2CC2)ccc1-c1cnc(N)c(-c2ccc3c(c2)CCNC3=O)c1	IC50 [4]: 40 nM; IC50 [1]: < 40 nM
> 900 nM	CCNC(=O)c1ccc(F)c(-c2cnc(N)c(-c3ccc4c(c3)CCNC4=O)c2)c1	
40 nM	Cc1cc(N2CCOCC2)cc2[nH]c(-c3c(NC[C@@H](O)c4cccc(Cl)c4)cc[nH]c3=O)nc12	Activity [14]: inactive
< 40 nM	Nc1ncc(-c2cccc([N+](=O)[O-])c2)cc1-c1ccc2c(c1)CCNC2=O	
< 40 nM	CC(C)Oc1cc(S(=O)(=O)N(C)C2CC2)ccc1-c1cnc(N)c(-c2ccc3c(c2)CCNC3=O)c1	
200 nM	Nc1ncc(-c2cc([N+](=O)[O-])cnc2F)cc1-c1ccc2c(c1)CCNC2=O	
< 40 nM	Nc1ncc(-c2cccc3sccc23)cc1-c1ccc2c(c1)CCNC2=O	
< 40 nM	CN(C1CC1)S(=O)(=O)c1ccc(-c2cnc(N)c(-c3ccc4c(=O)[nH]cnc4c3)c2)c(F)c1	
40 nM	Nc1ncc(-c2ccccc2F)cc1-c1ccc2c(c1)CCNC2=O	
40 nM	Nc1ncc(-c2cc([N+](=O)[O-])c(NCc3ccccc3)cc2F)cc1-c1ccc2c(c1)CCNC2=O	Activity [2]: Active
40 nM	Nc1ncc(-c2scnc2Cl)cc1-c1ccc2c(c1)CCNC2=O	IC50 [4]: > 900 nM; IC50 [1]: 40 nM
200 nM	Nc1ncc(-c2cncc3ncsc23)cc1-c1ccc2c(c1)CCNC2=O	
< 40 nM	COc1cc(S(=O)(=O)NC2CC2)ccc1-c1cnc(N)c(-c2ccc3c(c2)CCNC3=O)c1	
40 nM	Nc1ncc(-c2cc([N+](=O)[O-])cc(F)c2F)cc1-c1ccc2c(c1)CCNC2=O	
40 nM	Nc1ncc(-c2cc(-c3cccc4ncsc34)ccc2F)cc1-c1ccc2c(=O)[nH]cnc2c1	
< 40 nM	CN(C1CC1)S(=O)(=O)c1ccc(-c2cnc(N)c(-c3ccc4c(c3)CCNC4=O)c2)cc1	Activity [14]: Active
< 40 nM	Nc1ncc(-c2ccc(NS(=O)(=O)C3CC3)cc2OC2CCCC2)cc1-c1ccc2c(c1)CCNC2=O	
200 nM	Nc1ncc(-c2cccc(S(N)(=O)=O)c2)cc1-c1ccc2c(c1)CCNC2=O	
< 40 nM	Cc1cc(S(=O)(=O)N(C)C2CC2)ccc1-c1cnc(N)c(-c2ccc3c(c2)CCNC3=O)c1	
< 40 nM	Nc1ncc(-c2ccc(F)c3ncsc23)cc1-c1ccc2c(c1)CCNC2=O	
40 nM	Nc1ncc(-c2ccc(NS(=O)(=O)C3CC3)cc2OCc2ccccc2)cc1-c1ccc2c(c1)CCNC2=O	
40 nM	CN1CCc2cc(-c3cc(-c4cccc5ncsc45)cnc3N)ccc2C1=O	
40 nM	COc1cc(S(=O)(=O)N(C)C2CCCCC2)ccc1-c1cnc(N)c(-c2ccc3c(c2)CCNC3=O)c1	
